Experiment [1] deals with cAMP-dependent protein kinase catalytic subunit alpha (Homo sapiens, UniProt P17612).
In experiment [2] the target is 5'-AMP-activated protein kinase catalytic subunit alpha-1 (Homo sapiens, UniProt Q13131).
A further experiment deals with Deoxycytidine kinase (Homo sapiens, UniProt P27707).
For experiment [3], the target named is Mitogen-activated protein kinase kinase kinase 1 (Homo sapiens, UniProt Q13233).
Experiment [4] addresses Putative heat shock protein HSP 90-beta 2 (Homo sapiens, UniProt Q58FF8).
The target in another experiment is T1, Activin receptor type-1B (Homo sapiens, UniProt P36896).
T1 sequence (P36896 whole entry): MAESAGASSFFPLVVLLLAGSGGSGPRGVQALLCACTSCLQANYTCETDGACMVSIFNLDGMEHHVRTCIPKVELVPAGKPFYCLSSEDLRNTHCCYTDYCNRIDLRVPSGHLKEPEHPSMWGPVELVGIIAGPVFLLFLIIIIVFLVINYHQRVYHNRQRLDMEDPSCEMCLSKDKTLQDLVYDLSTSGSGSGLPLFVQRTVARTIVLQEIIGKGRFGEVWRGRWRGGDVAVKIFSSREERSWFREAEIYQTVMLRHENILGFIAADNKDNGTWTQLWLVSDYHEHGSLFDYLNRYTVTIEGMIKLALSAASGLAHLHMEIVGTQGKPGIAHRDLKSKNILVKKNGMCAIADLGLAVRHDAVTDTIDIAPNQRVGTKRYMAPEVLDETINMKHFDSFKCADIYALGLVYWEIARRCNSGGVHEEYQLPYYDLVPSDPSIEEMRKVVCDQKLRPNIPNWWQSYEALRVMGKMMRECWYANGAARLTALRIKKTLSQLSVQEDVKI

The target of experiment [5] is Ribosomal protein S6 kinase alpha-4 (Homo sapiens, UniProt O75676).
Experiment [6] addresses TRAF2 and NCK-interacting protein kinase (Homo sapiens, UniProt Q9UKE5).
For experiment [7], the target named is T2, Serine/threonine-protein kinase TAO1 (Homo sapiens, UniProt Q7L7X3).
T2 sequence (Q7L7X3 whole entry): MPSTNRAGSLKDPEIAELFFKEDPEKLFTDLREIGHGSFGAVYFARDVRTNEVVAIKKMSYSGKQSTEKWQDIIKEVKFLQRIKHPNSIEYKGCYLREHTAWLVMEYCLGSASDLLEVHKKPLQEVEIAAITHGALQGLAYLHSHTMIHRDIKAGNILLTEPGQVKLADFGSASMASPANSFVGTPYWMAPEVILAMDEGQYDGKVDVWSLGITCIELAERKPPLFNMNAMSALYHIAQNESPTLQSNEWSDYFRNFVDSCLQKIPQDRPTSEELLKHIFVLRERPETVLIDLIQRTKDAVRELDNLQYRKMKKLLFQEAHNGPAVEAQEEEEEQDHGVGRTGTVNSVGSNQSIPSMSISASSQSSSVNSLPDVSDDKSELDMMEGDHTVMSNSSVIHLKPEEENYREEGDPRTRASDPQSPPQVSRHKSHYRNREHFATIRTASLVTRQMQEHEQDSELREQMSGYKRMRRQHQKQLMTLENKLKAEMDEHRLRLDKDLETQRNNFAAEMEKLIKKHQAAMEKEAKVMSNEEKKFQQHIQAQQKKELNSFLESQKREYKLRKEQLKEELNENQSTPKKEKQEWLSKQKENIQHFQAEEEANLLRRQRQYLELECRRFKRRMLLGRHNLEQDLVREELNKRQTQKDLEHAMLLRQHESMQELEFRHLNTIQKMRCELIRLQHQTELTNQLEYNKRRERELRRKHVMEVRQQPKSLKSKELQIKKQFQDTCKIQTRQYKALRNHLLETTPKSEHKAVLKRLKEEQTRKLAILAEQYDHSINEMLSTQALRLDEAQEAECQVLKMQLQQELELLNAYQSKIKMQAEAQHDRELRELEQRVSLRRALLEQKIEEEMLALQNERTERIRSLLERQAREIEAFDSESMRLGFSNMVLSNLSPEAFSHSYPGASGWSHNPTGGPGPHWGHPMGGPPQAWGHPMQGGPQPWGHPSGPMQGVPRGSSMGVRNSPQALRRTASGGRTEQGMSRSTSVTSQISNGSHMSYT

For experiment [8], the target named is Tyrosine-protein kinase Fyn (Homo sapiens, UniProt P06241).
Experiment [9] deals with Tyrosine-protein kinase CSK (Homo sapiens, UniProt P41240).
Experiment [10] concerns the target GTP-binding nuclear protein Ran (Homo sapiens, UniProt P62826).
Experiment [11] addresses T3, Serine/threonine-protein kinase A-Raf (Homo sapiens, UniProt P10398).
T3 sequence (P10398 whole entry): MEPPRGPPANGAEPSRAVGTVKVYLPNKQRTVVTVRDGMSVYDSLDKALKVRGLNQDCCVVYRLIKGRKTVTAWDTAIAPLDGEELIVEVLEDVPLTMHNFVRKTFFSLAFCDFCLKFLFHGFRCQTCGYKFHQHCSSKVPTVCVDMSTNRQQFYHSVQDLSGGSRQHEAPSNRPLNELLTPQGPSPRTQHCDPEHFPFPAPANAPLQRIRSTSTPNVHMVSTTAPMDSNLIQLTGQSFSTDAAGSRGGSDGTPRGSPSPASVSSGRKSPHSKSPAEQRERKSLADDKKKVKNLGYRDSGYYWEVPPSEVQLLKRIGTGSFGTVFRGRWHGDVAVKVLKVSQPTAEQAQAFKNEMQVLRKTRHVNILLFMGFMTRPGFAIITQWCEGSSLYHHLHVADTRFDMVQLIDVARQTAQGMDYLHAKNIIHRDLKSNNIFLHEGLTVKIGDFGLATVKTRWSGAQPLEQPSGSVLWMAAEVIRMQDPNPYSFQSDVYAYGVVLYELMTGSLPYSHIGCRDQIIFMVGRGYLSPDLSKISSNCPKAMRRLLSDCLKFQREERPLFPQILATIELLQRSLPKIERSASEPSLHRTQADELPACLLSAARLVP

Structures are written as SMILES. Activity calls are given as the source filed them. Rule as the data show it, for most assays here: actives have a measured Kd and inactives only a lower limit.
Also: in the data inactive means no Kd found up to 30 µM.

Sequence of Deoxycytidine kinase (P27707 whole entry): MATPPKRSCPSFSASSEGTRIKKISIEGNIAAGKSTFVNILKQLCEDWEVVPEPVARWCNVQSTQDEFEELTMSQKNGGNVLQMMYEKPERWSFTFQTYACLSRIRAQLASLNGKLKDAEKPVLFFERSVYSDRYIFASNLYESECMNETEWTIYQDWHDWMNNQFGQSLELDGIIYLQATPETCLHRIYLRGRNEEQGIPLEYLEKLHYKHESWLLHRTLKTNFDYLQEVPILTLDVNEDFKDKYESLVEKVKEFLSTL
Sequence of Ribosomal protein S6 kinase alpha-4 (O75676 whole entry): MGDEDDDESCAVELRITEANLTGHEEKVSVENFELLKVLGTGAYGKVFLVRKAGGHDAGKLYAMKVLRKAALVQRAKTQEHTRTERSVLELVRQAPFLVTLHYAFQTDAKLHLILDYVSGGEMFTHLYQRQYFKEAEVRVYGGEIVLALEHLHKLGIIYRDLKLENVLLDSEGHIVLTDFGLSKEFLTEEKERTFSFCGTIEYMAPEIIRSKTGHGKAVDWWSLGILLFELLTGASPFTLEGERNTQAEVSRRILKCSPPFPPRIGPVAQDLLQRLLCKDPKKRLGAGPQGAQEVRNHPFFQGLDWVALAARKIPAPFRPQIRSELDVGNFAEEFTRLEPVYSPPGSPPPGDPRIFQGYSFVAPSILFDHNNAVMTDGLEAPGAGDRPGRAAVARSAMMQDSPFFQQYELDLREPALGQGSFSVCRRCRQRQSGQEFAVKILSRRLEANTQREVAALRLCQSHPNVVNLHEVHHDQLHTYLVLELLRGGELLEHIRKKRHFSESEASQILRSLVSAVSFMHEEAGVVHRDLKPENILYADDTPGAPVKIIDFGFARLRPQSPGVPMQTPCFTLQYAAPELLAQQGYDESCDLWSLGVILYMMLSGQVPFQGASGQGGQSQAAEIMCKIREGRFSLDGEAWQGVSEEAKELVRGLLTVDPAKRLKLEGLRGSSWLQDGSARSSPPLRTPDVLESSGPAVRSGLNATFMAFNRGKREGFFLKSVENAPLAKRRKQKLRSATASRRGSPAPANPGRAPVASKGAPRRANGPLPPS
Sequence of Mitogen-activated protein kinase kinase kinase 1 (Q13233 whole entry): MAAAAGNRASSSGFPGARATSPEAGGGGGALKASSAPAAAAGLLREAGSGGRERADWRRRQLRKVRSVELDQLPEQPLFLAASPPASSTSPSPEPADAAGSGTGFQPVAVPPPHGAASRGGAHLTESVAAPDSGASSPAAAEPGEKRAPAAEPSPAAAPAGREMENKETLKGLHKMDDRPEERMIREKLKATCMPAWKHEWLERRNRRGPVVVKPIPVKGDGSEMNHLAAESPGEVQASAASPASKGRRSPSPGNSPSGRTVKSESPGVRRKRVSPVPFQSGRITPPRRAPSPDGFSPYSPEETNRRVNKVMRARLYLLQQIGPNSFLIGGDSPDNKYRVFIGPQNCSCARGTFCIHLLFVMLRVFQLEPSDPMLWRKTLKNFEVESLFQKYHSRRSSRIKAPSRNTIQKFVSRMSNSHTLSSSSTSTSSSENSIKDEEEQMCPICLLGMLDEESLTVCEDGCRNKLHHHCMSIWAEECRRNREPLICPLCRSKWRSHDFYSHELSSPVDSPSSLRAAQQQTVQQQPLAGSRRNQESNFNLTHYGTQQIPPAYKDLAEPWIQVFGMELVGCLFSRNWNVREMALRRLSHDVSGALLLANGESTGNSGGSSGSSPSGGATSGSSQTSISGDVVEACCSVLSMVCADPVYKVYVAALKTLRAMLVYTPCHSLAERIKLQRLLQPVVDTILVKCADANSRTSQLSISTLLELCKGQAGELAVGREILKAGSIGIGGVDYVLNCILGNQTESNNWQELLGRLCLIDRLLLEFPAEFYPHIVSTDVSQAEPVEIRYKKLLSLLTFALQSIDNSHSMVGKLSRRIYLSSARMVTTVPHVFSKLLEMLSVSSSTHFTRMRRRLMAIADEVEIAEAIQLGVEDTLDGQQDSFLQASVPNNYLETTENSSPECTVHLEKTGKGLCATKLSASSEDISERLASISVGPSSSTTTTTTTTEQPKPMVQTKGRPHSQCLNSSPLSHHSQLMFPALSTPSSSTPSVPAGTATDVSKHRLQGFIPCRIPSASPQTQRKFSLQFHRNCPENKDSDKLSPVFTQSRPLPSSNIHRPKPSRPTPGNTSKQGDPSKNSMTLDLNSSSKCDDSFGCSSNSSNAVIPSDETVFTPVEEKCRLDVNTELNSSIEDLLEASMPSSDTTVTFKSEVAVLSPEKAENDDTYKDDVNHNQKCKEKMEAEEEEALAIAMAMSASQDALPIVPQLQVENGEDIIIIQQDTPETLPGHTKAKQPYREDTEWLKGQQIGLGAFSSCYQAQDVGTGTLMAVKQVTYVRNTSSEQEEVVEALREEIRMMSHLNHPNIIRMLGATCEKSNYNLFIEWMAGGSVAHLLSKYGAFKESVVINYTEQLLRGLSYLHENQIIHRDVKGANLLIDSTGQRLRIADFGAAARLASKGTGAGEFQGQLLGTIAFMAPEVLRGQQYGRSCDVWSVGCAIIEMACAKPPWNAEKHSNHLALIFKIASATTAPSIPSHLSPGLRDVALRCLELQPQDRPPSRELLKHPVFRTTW
Sequence of TRAF2 and NCK-interacting protein kinase (Q9UKE5 whole entry): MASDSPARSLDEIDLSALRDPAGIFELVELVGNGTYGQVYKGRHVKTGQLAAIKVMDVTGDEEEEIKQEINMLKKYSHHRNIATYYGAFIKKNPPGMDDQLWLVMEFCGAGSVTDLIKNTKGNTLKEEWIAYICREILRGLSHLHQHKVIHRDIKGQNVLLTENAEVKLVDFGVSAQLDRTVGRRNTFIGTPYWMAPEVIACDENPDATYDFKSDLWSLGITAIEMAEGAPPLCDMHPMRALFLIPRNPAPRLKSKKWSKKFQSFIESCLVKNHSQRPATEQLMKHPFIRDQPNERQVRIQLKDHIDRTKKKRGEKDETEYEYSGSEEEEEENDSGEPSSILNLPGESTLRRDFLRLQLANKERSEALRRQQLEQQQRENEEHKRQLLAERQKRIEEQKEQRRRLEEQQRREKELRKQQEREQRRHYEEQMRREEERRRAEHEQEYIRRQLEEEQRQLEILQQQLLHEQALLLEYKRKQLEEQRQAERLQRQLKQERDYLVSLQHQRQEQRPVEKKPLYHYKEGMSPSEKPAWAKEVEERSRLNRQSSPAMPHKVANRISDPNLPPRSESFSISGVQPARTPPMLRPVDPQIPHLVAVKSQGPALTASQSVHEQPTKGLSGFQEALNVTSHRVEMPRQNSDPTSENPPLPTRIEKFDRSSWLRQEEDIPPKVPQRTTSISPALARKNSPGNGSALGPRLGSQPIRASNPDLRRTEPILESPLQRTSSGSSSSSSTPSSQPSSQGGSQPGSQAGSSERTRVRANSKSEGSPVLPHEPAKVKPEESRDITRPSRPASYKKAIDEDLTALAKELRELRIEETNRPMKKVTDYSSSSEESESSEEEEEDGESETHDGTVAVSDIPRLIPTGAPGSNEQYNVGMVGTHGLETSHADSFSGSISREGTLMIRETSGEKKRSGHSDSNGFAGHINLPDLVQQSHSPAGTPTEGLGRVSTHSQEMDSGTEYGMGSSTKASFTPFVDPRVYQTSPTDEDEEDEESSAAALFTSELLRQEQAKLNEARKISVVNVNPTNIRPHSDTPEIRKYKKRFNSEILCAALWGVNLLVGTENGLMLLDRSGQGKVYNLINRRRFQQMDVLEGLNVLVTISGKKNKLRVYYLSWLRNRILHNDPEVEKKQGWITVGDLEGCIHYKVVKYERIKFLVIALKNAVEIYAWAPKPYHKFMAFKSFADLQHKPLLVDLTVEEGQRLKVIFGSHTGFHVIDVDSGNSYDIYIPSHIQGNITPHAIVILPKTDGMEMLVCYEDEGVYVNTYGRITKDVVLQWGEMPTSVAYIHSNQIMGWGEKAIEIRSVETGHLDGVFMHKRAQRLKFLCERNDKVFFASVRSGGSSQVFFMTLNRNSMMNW
Sequence of Putative heat shock protein HSP 90-beta 2 (Q58FF8 whole entry): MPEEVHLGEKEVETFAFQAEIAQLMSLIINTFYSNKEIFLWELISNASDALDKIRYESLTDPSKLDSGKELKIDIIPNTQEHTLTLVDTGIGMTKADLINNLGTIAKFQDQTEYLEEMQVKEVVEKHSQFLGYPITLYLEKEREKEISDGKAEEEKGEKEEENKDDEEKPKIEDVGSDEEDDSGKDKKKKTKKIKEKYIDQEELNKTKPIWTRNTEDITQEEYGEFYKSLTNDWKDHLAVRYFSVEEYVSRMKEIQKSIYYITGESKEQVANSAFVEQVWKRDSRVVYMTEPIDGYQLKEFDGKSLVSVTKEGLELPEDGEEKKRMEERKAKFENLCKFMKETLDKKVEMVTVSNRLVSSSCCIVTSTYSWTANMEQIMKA
Sequence of Tyrosine-protein kinase CSK (P41240 whole entry): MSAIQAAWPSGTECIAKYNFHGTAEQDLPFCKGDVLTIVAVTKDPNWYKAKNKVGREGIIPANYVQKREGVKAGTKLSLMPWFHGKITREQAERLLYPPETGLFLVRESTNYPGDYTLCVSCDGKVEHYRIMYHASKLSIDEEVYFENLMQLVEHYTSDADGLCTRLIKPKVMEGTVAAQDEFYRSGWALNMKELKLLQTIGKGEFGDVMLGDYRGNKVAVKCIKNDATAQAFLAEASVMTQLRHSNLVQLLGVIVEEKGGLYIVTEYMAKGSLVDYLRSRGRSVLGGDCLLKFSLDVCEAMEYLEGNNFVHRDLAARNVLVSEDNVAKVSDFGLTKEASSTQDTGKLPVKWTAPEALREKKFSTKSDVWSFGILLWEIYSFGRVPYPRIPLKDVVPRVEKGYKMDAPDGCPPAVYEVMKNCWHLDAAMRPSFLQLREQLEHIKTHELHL

As a reminder, the Kd is the constant that tells how readily two partners part at equilibrium. Turning to `CC(=O)Nc1cccc(-n2c(=O)n(C3CC3)c(=O)c3c(Nc4ccc(I)cc4F)n(C)c(=O)c(C)c32)c1` [TRAMETINIB], the Kd (in experiment [1]; in experiment [2]; at Deoxycytidine kinase; in experiment [3]; in experiment [4]; at Activin receptor type-1B) was > 30 µM (inactive) in each case. Also, the Kd in [5], in experiment [6], in [7], in experiment [8], in experiment [9] and in experiment [10] was > 30 µM (inactive) throughout. The Kd in experiment [11] was > 30 µM (inactive).

In the case of `COCCNCc1ccc(-c2cc3nccc(Oc4ccc(NC(=S)NC(=O)Cc5ccc(F)cc5)cc4F)c3s2)nc1` [GLESATINIB], the Kd (in [1]; in experiment [2]; at Deoxycytidine kinase; in experiment [3]; in experiment [4]; on Activin receptor type-1B) was > 30 µM (inactive) in each case. The Kd in experiment [5] is > 30 µM (inactive); in experiment [6], > 30 µM (inactive); in experiment [7] it was > 30 µM (inactive); in experiment [8] it was 1.24 µM (active); in [9] it was > 30 µM (inactive); in experiment [10], > 30 µM (inactive). For the same molecule, in [11], the Kd is > 30 µM (inactive).

Take `CNS(=O)(=O)Nc1nccc(Cc2c(C)c3ccc(Oc4ncccn4)cc3oc2=O)c1F` [AVUTOMETINIB]: the Kd (in [1]; in experiment [2]; on Deoxycytidine kinase; in experiment [3]; in experiment [4]; on Activin receptor type-1B) was > 30 µM (inactive) throughout. The Kd in [5], in experiment [6], in experiment [7], in experiment [8], in experiment [9] and in experiment [10] was > 30 µM (inactive) each time. Also, the Kd in [11] was > 30 µM (inactive).

Source of the values: ChEMBL document CHEMBL3991601, “The target landscape of clinical kinase drugs” (Science, 2017).
